US20030216319A1, “Specific autoimmune reactions against isomerised/optically inverted epitopes: application for treatment of autoimmune diseases” (priority 2000, published 2003)

Experiments:
[1] = test system: immunoaffinity purified RA auto-antibodies; assay: Immuno-blotting of cellulose-bound spot peptides with immunoaffinity purified RA auto-antibodies (Example 5); type: binding, human; details: IgM RF eluate 1 μg/mL
Procedure: 1. IgG is coupled to CNBr activated Sepharose using the manufacturers instructions (Pharmacia, Upsala, Sweden).
2. The IgG Sepharose is packed in a suitable column (i.e. a disposable DG10 column, BioRad laboratories, Richmond, Calif.). The column is washed with at least 10 column volumes PBS and with 10 column volumes 0.1 M sodium acetate, 0.15 M sodium chloride pH 3.5 and finally equilibrated in PBS.
3. Serum from RA patients is diluted 10 times in PBS and loaded on the column. The column is washed with PBS until the absorbency (OD 280 nm) reaches base-line.
4. Bound RF's are eluted with 0.1 M sodium acetate, 0.15 M sodium chloride pH 3.5.
5. IgM is separated from IgG and IgA by gel-filtration on a Sephadex G-200 column in 0.1 M sodium acetate, 0.15 M sodium chloride pH 3.5.
6. Eluted IgM is diluted in PBS-BT to 1 μg/mL and assayed as described below.
Seven amino-acid peptides extending over the Asn-315 residue were synthesised by spot synthesis using Whatman 540 paper (Maidstone, U.K.), using the previously described procedures (Frank, 1992, Kramer et al 1994). The peptides were automatically prepared using a spot synthesis method (Abimed, Langenfeld, FRG). The following peptides were synthesised, covalently attached via the carboxy-terminus:
The cellulose membrane containing these peptides was incubated with the immunoaffinity purified RA auto-antibodies purified as described above. […]

human immunoglobulin = assay: Homogeneous RIA with 125I-BSA-BS3-Pro-Ser-Glu-γ-Gly-Lys-Gly-Arg-Gly in MS and control sera (Example 9); type: binding
Source text: For this purpose the MBP derived octapeptide Pro-Ser-Glu-γ-Gly-Lys-Gly-Arg-Gly (γL) was manufactured synthetically using standard FMOC chemistry. The peptide was conjugated to bovine serum albumin (BSA) by Bis[sulfosuccinimidyl]suberate (BS^3) according to the manufacturers instructions (Pierce) and iodinated with ^125I using the chloramine T protocol as described in Example 4.
Serum from 9 MS-patients and 8 healthy persons are reacted overnight with ^125I-BSA-BS^3-Pro-Ser-Glu-γ-Gly-Lys-Gly-Arg-Gly followed by precipitation of immune complexes with protein A Sepharose. Serum samples are diluted 1:200 in IMP buffer. The ^125I BSA-BS^3-Pro-Ser-Glu-γ-Gly-Lys-Gly-Arg-Gly tracer is diluted in IMP buffer (to an activity of 100000 CPM/25 μl). Seventy-five μl of diluted serum sample is mixed with 25 μl tracer and 25 μl of either IMP buffer or free (unconjugated/unlabelled) Pro-Ser-Glu-γ-Gly-Lys-Gly-Arg-Gly peptide (in a concentration of […] in IMP buffer) is added to this mixture. This mixture is incubated overnight at 4° C. Protein. A Sepharose (PAS) 20 μl/sample vial is weighed out and washed 3 times with 10 ml IMP washing buffer, and transferred to eppendorf 1.5 ml tubes using a repeater pipette. The PAS is sedimented by centrifugation at 2000 RPM 2 min., and the supernatant is aspirated using a suction device (or a pipette). […]

| Substance | reactivity of purified RA auto-antibodies towards cellulose-bound peptide [1] | inhibition of binding of tracer conjugate to human immunoglobulin by free peptide (human immunoglobulin; 25 μl free peptide, 10 μl/mL in IMP buffer) | % inhibition of immunoglobulin binding by free peptide, MS sera compared to control sera (human immunoglobulin; p=0.008, two-tailed non-parametric t-test) |
| --- | --- | --- | --- |
| His-Gln-Asp-Trp-Leu-Asp-β-Gly... [peptide IV] | strong reactivity |  |  |
| Pro-Ser-Glu-γ-Gly-Lys-Gly-Arg-Gly |  | could be specifically inhibited | significantly higher |
